# According to patent US20090062361A1, “THERAPEUTIC HYDANTOINS” (ALLERGAN, INC., priority 2007, published 2009):
# Legend:
# [1] = tested on: laser-induced hypertensive monkeys; experiment: Intraocular pressure in laser-induced hypertensive monkeys; type: in vivo; settings: 0.003%, one single day dose, at 24 h
# Description: (§1) U.S. Pat. No. 7,091,231 describes the methods used to carry out the tests reported below.
# (§2) Isopropyl 5-(3-(3-(4-(1-hydroxyhexyl)phenyl)-2,5-dioxoimidazolidin-4-yl)propyl)thiophene-2-carboxylate (31) was tested in normotensive dogs at 0.003%, dosing once daily for 5 days. The maximum intraocular pressure (IOP) decrease from baseline was 7.7 mmHg (45%) at 102 h; the maximum ocular surface hyperemia (OSH) score was 2.5 at 26 h. This compound was also tested in laser-induced hypertensive monkeys, using one single day dose. At 0.003%, the maximum IOP decrease from baseline was 23 mmHg (53%) at 24 h.
# (§3) Isopropyl 5-(3-(3-(4-hexanoylphenyl)-2,5-dioxoimidazolidin-4-yl)propyl)thiophene-2-carboxylate (32) was tested in normotensive dogs at 0.003%, dosing once daily for 5 days. The maximum intraocular pressure (IOP) decrease from baseline was 8.9 mmHg (48%) at 54 h; the maximum ocular surface hyperemia (OSH) score was 2.3 at 54 h. This compound was also tested in laser-induced hypertensive monkeys, using one single day dose. At 0.003%, the maximum IOP decrease from baseline was 19 mmHg (49%) at 24 h.
# normotensive dogs = experiment: Intraocular pressure and ocular surface hyperemia in normotensive dogs; type: in vivo; settings: 0.003%, once daily for 5 days
# Description: as §1, §2, §3
# EP2 [2] = molecular target: T1, EP2 (Homo sapiens, UniProt P43116); experiment: EP2 binding (Ki)
# From the text: (§4) United States Patent Application Publication No. 20070129552, incorporated by reference herein, describes the methods used to obtain the in vitro data in the table below.
# hDP = molecular target: T2, hDP (Homo sapiens, UniProt Q13258); experiment: Other receptors functional assay, hDP; type: cell-based
# T2 sequence (Q13258 1-359): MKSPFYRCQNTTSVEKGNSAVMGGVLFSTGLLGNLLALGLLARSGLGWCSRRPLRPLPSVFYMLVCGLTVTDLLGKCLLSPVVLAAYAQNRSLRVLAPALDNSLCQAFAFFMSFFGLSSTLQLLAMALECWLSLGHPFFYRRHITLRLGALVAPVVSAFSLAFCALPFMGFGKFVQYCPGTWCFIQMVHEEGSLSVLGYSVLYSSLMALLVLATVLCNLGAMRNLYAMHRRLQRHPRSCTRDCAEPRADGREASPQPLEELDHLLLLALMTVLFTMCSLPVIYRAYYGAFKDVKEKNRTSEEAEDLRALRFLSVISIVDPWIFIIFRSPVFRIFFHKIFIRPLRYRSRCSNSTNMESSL
# From the text: as §4
# EP4 [3] = molecular target: T3, EP4 (Homo sapiens, UniProt P35408); experiment: EP4 flipr functional assay; type: cell-based
# From the text: as §4
# EP2 [4] = molecular target: T1, EP2; experiment: EP2 flipr functional assay; type: cell-based
# From the text: as §4
# EP4 [5] = molecular target: T3, EP4; experiment: EP4 binding (KI)
# From the text: as §4
# hEP3A = molecular target: T4, hEP3A (Homo sapiens, UniProt P43115); experiment: Other receptors functional assay, hEP3A; type: cell-based
# T4 sequence (P43115 1-390): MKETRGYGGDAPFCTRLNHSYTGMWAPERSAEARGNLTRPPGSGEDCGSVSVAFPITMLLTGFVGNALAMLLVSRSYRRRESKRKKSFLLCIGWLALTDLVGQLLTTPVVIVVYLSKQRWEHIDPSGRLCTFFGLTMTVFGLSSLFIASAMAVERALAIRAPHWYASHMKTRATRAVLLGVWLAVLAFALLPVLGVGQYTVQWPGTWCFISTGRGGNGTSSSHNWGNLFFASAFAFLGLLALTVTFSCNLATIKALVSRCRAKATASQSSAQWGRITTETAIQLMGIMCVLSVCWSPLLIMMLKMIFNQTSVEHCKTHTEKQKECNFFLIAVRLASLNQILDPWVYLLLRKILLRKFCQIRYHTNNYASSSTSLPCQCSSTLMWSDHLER
# From the text: as §4
# T1 sequence (P43116 whole entry): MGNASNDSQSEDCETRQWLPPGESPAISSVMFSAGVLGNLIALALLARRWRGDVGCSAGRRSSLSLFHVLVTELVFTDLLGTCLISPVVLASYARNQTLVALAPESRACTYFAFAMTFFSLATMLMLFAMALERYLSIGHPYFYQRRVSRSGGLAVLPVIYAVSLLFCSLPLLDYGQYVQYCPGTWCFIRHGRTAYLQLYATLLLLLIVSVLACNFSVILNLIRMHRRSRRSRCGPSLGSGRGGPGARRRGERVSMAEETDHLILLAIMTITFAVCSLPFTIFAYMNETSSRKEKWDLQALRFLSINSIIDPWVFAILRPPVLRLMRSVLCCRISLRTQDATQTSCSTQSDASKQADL
# T3 sequence (P35408 whole entry): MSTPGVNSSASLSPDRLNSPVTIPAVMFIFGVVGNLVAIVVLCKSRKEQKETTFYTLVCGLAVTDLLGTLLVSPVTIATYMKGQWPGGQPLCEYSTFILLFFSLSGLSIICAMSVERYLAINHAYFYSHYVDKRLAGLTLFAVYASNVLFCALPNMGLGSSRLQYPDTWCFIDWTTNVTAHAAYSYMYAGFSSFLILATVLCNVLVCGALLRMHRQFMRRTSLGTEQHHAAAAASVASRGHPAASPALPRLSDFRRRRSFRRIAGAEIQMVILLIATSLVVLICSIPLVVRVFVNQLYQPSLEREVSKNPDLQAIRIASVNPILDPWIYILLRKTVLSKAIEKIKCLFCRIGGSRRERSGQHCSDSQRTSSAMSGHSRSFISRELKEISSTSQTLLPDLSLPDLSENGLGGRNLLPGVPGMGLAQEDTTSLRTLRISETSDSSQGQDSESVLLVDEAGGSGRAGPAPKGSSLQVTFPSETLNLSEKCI
Structure (SMILES),maximum ocular surface hyperemia (OSH) score (normotensive dogs; at 26 h),Ki (EP2 [2]) [nM],EC50 (hDP) [nM],EC50 (EP4 [3]) [nM],EC50 (EP2 [4]) [nM],Ki (EP4 [5]) [nM],EC50 (hEP3A) [nM],maximum ocular surface hyperemia (OSH) score (normotensive dogs; at 54 h),maximum IOP decrease from baseline [1] [mmHg],maximum IOP decrease from baseline (percent) [1] [%],maximum intraocular pressure (IOP) decrease from baseline (normotensive dogs; at 102 h) [mmHg],maximum intraocular pressure (IOP) decrease from baseline (percent) (normotensive dogs; at 102 h) [%],maximum intraocular pressure (IOP) decrease from baseline (normotensive dogs; at 54 h) [mmHg],maximum intraocular pressure (IOP) decrease from baseline (percent) (normotensive dogs; at 54 h) [%]
"CCCCCC(O)c1ccc(N2C(=O)NC(=O)C2CCCc2ccc(C(=O)OC(C)C)s2)cc1 (stereo not shown) [Example 31, Isopropyl 5-(3-(3-(4-(1-hydroxyhexyl)phenyl)-2,5-dioxoimidazolidin-4-yl)propyl)thiophene-2-carboxylate]",2.5,,,,,,,,23,53,7.7,45,,
"CCCCCC(=O)c1ccc(N2C(=O)NC(=O)C2CCCc2ccc(C(=O)O)s2)cc1 (stereo not shown) [Example 1, 5-(3-(3-(4-hexanoylphenyl)-2,5-dioxoimidazolidin-4-yl)propyl)thiophene-2-carboxylic acid]",,4.5,8810,17500,17,3240,131,,,,,,,
"CCCCCC(=O)c1ccc(N2C(=O)NC(=O)C2CCCc2ccc(C(=O)OC(C)C)s2)cc1 (stereo not shown) [Example 32, Isopropyl 5-(3-(3-(4-hexanoylphenyl)-2,5-dioxoimidazolidin-4-yl)propyl)thiophene-2-carboxylate]",,,,,,,,2.3,19,49,,,8.9,48
"CCCCC[C@H](O)c1ccc(N2C(=O)NC(=O)C2CCCc2ccc(C(=O)O)s2)cc1 (stereo in doubt) [Example 2, 5-(3-(3-(4-(1-hydroxyhexyl)phenyl)-2,5-dioxoimidazolidin-4-yl)propyl)thiophene-2-carboxylic acid]",,5,17400,,3.5,> 10000,10,,,,,,,

# Continued by falling Ki (EP2 [2]), values first:
maximum ocular surface hyperemia (OSH) score (normotensive dogs; at 26 h),Ki (EP2 [2]) [nM],EC50 (hDP) [nM],EC50 (EP4 [3]) [nM],EC50 (EP2 [4]) [nM],Ki (EP4 [5]) [nM],EC50 (hEP3A) [nM],maximum ocular surface hyperemia (OSH) score (normotensive dogs; at 54 h),Structure (SMILES),maximum IOP decrease from baseline [1] [mmHg],maximum IOP decrease from baseline (percent) [1] [%],maximum intraocular pressure (IOP) decrease from baseline (normotensive dogs; at 102 h) [mmHg],maximum intraocular pressure (IOP) decrease from baseline (percent) (normotensive dogs; at 102 h) [%],maximum intraocular pressure (IOP) decrease from baseline (normotensive dogs; at 54 h) [mmHg],maximum intraocular pressure (IOP) decrease from baseline (percent) (normotensive dogs; at 54 h) [%]
,4,> 10000,,23,7190,29,,"CCCCC[C@H](O)c1ccc(N2C(=O)NC(=O)[C@H]2CCCc2ccc(C(=O)O)s2)cc1 [Example 8, 5-(3-((R)-3-(4-((S)-1-hydroxyhexyl)phenyl)-2,5-dioxoimidazolidin-4-yl)propyl)thiophene-2-carboxylic acid]",,,,,,
,2,> 10000,,4,5070,5,,"CCCCC[C@H](O)c1ccc(N2C(=O)NC(=O)[C@@H]2CCCc2ccc(C(=O)O)s2)cc1 [Example 7, 5-(3-((S)-3-(4-((S)-1-hydroxyhexyl)phenyl)-2,5-dioxoimidazolidin-4-yl)propyl)thiophene-2-carboxylic acid]",,,,,,
,1,19300,2000,1,7210,15,,"CCCCC[C@@H](O)c1ccc(N2C(=O)NC(=O)[C@@H]2CCCc2ccc(C(=O)O)s2)cc1 [Example 10, 5-(3-((S)-3-(4-((R)-1-hydroxyhexyl)phenyl)-2,5-dioxoimidazolidin-4-yl)propyl)thiophene-2-carboxylic acid]",,,,,,
